# pEC50, pIC50, pKi: −log10 of the molar value.
# How the values were obtained:
# PC-12 [1] = assay: Cytoprotective activity against glutamate induced-toxicity in rat PC-12 cells assessed as reduction in cell death for 24 hrs by MTT assay; format: functional, cell-based; conditions: PC-12, 24 h
# Rattus norvegicus = organism: Rattus norvegicus; assay: Inhibition of rat liver mitochondrial F0F1-ATP synthase hydrolytic activity at 5 uM in presence of MgATP; conditions: Mitochondria
# PC-12 [2] = assay: Cytoprotective activity against KCN induced-toxicity in rat PC-12 cells assessed as reduction in cell death for 24 hrs by MTT assay; format: functional, cell-based; conditions: PC-12, 24 h
# [3] = Inhibition of bovine heart mitochondrial F0F1-ATP synthase assessed as reduction in NADH oxidation for 40 mins by MitoTox Complex V OXPHOS activity microplate assay; format: mitochondria, Bos taurus, Mitochondria
# [4] = Inhibition of thrombin-induced hyperpermeability of human HMEC-1 cells at 10 uM preincubated for 20 mins followed by thrombin addition and measured for 60 mins by transwell assay; format: functional; conditions: HMEC-1, 1.333 h, time 80 min
# [5] = Inhibition of bovine heart mitochondria ATP synthase in presence of PEP, PK, LDH and NADH for 1 hrs by MitoTox microplate assay; set-up: species or system Bos taurus
# [6] = Non-competitive inhibition of bovine heart mitochondrial F0F1-ATP synthase incubated for 25 mins by ATPase assay; format: mitochondria, Bos taurus, Mitochondria
# A549 = assay: Antiproliferative activity against human A549 cells assessed as reduction in cell proliferation incubated for 48 hrs by xCELLigence RTCA system analysis; format: functional, cell-based; conditions: A549, 48 h
# CL1-0 = assay: Antiproliferative activity against human CL1-0 cells assessed as reduction in cell proliferation incubated for 48 hrs by xCELLigence RTCA system analysis; format: functional, cell-based; conditions: CL1-0, 48 h
# CAKI-1 = assay: Antiproliferative activity against human CAKI-1 cells assessed as reduction in cell proliferation incubated for 96 hrs by Cell TiterGlo assay; format: functional, cell-based; conditions: CAKI-1, 96 h
# [7] = Neuroprotective activity against amyloid beta induced cell death in rat Primary hippocampal neuron cells assessed as increase in cell viability incubated for 2 days by lactate dehydrogenase release assay; format: functional, cell-based; conditions: Hippocampal neurone, 48 h
# [8] = Binding affinity to mitochondrial ATP5A in mouse HT-22 cells measured after 15 mins by LC/MS/MS based pull-down assay; format: cell-based
# Cortical neurone = assay: Neuroprotective activity against rat Primary cortical neuron cells assessed as rescue of cell death incubated for 2 days by fluorescent live-dead assay; format: functional, cell-based; conditions: 48 h
# T47D = assay: Antiproliferative activity against human T47D assessed as inhibition of cell viability incubated for 72 hrs by CCK-8 assay; format: functional, cell-based
# MCF7 = assay: Antiproliferative activity against human MCF7 assessed as inhibition of cell viability incubated for 72 hrs by CCK-8 assay; format: functional, cell-based; conditions: MCF7, 72 h
# HepG2 = assay: Cytotoxicity against human HepG2 cells assessed as reduction in glucose induced mitochondrial toxicity by measuring ATP depletion incubated for 24 hrs by CellTiter-Glo luminescent cell viability assay; format: functional, cell-based; conditions: HepG2, 24 h
# [9] = Inhibition of bovine heart mitochondrial F0F1-ATP synthase for 1 hr by microplate reader analysis; format: mitochondria, Bos taurus, Mitochondria
compound,measurement,setting,value
CCOC(=O)C1=C(C)NC2=C(C=Nc3ccccc3N2)[C@@H]1c1ccccc1[N+](=O)[O-],pIC50,PC-12 [1],7.54
same,inhibition,Rattus norvegicus,67%
same,pIC50,PC-12 [2],8.10
C=C1CC[C@@]2(OC1)O[C@H]1C[C@H]3[C@@H]4CC=C5C[C@H](O)C[C@H](O[C@@H]6OC[C@H](O)[C@H](O)[C@H]6O[C@@H]6O[C@@H](C)[C@H](O)[C@@H](O)[C@H]6O)[C@]5(C)[C@H]4CC[C@]3(C)[C@H]1[C@@H]2C,pKi,[3],5.00
same,inhibition at 10 µM,[4],41.9%
CNC(=O)c1cc(Oc2ccc(NC(=O)Nc3ccc(Cl)c(C(F)(F)F)c3)cc2)ccn1 [SORAFENIB],pIC50,[5],5.60
NCCc1ccc(Oc2ccc(O)cc2)c(I)c1,pIC50,[6],4.56
COc1cc(=O)oc(/C=C/C=C/C=C/C(C)=C/[C@]2(C)O[C@H](C)[C@](C)(O)[C@H]2O)c1C,pIC50,A549,5.82
same,pIC50,CL1-0,5.82
Nc1ncnc2c1nc(Cl)n2[C@@H]1O[C@H](CO)[C@@H](O)[C@H]1O [8-CHLOROADENOSINE],pIC50,CAKI-1,5.70
COc1cccc(/C=N/N(C(=O)C(F)(F)F)c2ccc(C)cc2C)c1 [J147],pEC50,[7],6.70
same,pEC50,[8],7.70
same,pEC50,Cortical neurone,7.60
CCC(C)N(C)C(=O)c1cc2ccccc2c(-c2ccccc2Cl)n1 (configuration not stated) [PK-11195],pIC50,T47D,8.22
same,pIC50,MCF7,8.27
Cc1oncc1C(=O)Nc1ccc(C(F)(F)F)cc1 [LEFLUNOMIDE],pIC50,HepG2,3.96
same,pIC50,[9],4.46

# From ChEMBL document CHEMBL5230122, “Natural products and other inhibitors of F1FO ATP synthase” (Eur J Med Chem, 2020)
